Experimental findings from patent US7803792B2, “Quaternary ammonium compounds” (Asahi Kasei Pharma Corporation, priority 2002, dated 2010) are described below.

A word on the IC50: it is the concentration that gives 50% inhibition. Low values mean greater potency in that assay, high ones weaker potency in that assay.

Data set [1] concerns bile duct partial ligation model. Kind of data set: Cholestasis-caused hepatopathy model, bile duct partial ligation, IBAT inhibiting compounds, blood after 24 hours (Test Example 13). The data set is classed as in vivo, rat. The following applies: blood 24 hours after administration, N = 3, average ± standard error. Here is the method:
“Cholestasis-Caused Hepatopathy” Model (Bile Duct Partial Ligation Model)
In this test example, the model of cholestasis-caused hepatopathy was tested according to the method described in Test Example 5.
That is, the abdomens of 8 to 10 weeks old SD (IGS) male rats were cut open under anesthesia with pentobarbital and partial ligation surgery of the bile duct was carried out. After the surgery, 200 mg/kg of bile acid and an IBAT inhibiting compound were forcibly orally administered to the rats (each n=3). As a control group, physiological saline […] was administered (n=3). To observe the effect of the partial ligation surgery, a sham group (the abdomen was cut open under anesthesia with pentobarbital but partial ligation surgery of the bile duct was not carried out) and an untreated group were established (each n=3). After 24 hours from the administration a blood sample was taken from the abdominal aorta and AST, ALT, and ALP in the blood were measured using the method described in Test Example 5.

The next data set has as its system bile acid loaded model. The data set can be described thus: Cholestasis-caused hepatopathy model, bile acid loaded model, 4.5 days (Test Example 14). The data set is classed as in vivo, rat. The following applies: administration period 4.5 days, N = 6, average ± standard error. As for the experimental part: “Cholestasis-Caused Hepatopathy” Model (Bile Acid Loaded Model)
In this test example, the model of hepatopathy due to loading of bile acid was carried out similarly to the protocol B in Test Example 5. However, the administration period in this test example was changed to 4.5 days. […] Therefore, the compounds have proven to be useful as drugs for the treatment and prevention of cholestasis-caused hepatopathy, in particular as drugs for the treatment and prevention of primary biliary cirrhosis and primary sclerosing cholangitis. Moreover, the compounds of other examples of the present invention not shown in Tables 18 and 19 can be expected to have excellent ameliorating effects on cholestasis-caused hepatopathy.

The subject of the next data set is Caco 2 cells. Kind of data set: Toxicity with respect to alimentary canal: cytotoxicity to Caco 2, LDH activity (Test Example 12). Type of data set: cell-based, human. The following applies: LDH activity after 2 hours; in words. Here is the method: Toxicity With Respect to Alimentary Canal
To evaluate the toxicity of the compounds of the present invention to the alimentary canal, the cytotoxicity to Caco 2, which is a human originated small intestine epithelial cell line, was tested by referring to the method of Bestwick C S et al. [Biochimica et Biophysica Acta 1474: 47-55, 1999].
That is, Caco 2 cells (purchased from ATCC) were inoculated on a 96-well plate such that there were 10,000 cells/well [MEM-E medium, 10% FBS (Fetal Bovine Serum), 1% NEAA (Non Essential Amino Acid) solution, (both manufactured by GIBCO PHARMACEUTICAL COMPANY)]. After culturing for 48 hours, the test compounds were diluted with the culture medium and added to the respective wells. After 2 hours, 50 μl of the culture broth was collected and the LDH activity in the collected culture broth was measured by using an LDH activity measuring kit (CytoTox 96 Non-Radioactive Cytotoxicity Assay, manufactured by PROMEGA CORPORATION). Relative activities were calculated assuming the LDH activity as 100% when the Caco 2 cells were treated with the cytolytic agent and the obtained relative activities were taken as cytotoxicities to Caco 2 cell.

The next data set has as its target T1, rat IBAT (Rattus norvegicus, UniProt Q62633).
T1 construct: expressed in transfected cells; host or cells: Cos 7
T1 sequence (Q62633 1-348): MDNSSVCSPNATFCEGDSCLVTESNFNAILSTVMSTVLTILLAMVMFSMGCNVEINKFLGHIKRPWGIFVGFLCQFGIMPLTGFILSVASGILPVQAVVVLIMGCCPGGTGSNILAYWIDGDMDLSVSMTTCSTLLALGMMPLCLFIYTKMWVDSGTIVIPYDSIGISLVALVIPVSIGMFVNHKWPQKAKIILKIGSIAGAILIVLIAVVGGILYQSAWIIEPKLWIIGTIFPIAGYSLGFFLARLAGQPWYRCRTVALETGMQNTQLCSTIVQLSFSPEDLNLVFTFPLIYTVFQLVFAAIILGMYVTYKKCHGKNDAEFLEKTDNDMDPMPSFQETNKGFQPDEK
The data set can be described thus: In vitro assay of temporarily expressed rat IBAT transporter using Cos 7 cells (Test Example 8). Type of data set: cell-based. The following applies: Cos 7 cells temporarily expressing rat IBAT; [3H] taurocholate 8 μM, 37° C., 60 minutes. As for the experimental part:
In Vitro Assay of Compounds Which Inhibit Temporarily Expressed Human IBAT Transporter or Rat IBAT Transporter Using Cos 7 Cells
In this test example, the in vitro assay of the compounds which inhibit temporarily expressed human IBAT transporter or rat IBAT transporter using Cos cells was carried out according to the method described in Am. J. Physiol., 274, G157-169.
That is, […] Cos 7 were inoculated on a 24-well cell plate. One day later, 0.3 μg per well of cDNA of a human IBAT or a rat IBAT was transfected by using FuGENE6 (manufactured by ROCHE PHARMACEUTICAL CO., LTD.). For the assay, the cells cultured for one day after the transfection were used and the following procedure was followed. The cells were washed once with an assay buffer, Hank's buffer solution containing 25 mM glucose and with 10 mM HEPES (pH 7.4), and then the assay buffer was replaced by an assay buffer to which the test compound was added. After adding [^3H] taurocholate to a final concentration of 8 μM, the cells were incubated at 37° C. for 60 minutes. [^3H] taurocholate was allowed to be incorporated in Cos 7 cells through human IBAT or rat IBAT. The reaction was stopped by washing twice with a buffer prepared by adding 1 mM taurocholate to the assay buffer and lyzing the cells with 0.2M NaOH. Measurement of radioactivity was carried out by introducing the cell lyzate in 4 ml of liquid scintillation cocktail, stirring the mixture well, and then measuring the radioactivity by a scintillation counter.

The target of another data set is T2, human IBAT (Homo sapiens, UniProt Q12908).
T2 construct: expressed in transfected cells; host or cells: Cos 7
T2 sequence (Q12908 1-348): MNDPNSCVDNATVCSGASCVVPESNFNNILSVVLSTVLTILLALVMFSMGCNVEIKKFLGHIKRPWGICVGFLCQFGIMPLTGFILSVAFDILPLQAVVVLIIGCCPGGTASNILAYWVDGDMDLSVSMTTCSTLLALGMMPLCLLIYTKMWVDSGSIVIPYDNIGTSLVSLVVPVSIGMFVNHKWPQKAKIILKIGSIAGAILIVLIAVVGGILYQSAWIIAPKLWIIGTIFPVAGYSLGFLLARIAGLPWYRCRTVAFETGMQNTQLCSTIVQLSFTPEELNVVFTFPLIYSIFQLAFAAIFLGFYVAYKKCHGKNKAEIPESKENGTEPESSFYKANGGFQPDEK
The data set can be described thus: In vitro assay of temporarily expressed human IBAT transporter using Cos 7 cells (Test Example 8). Type of data set: cell-based. The following applies: Cos 7 cells temporarily expressing human IBAT; [3H] taurocholate 8 μM, 37° C., 60 minutes. Put shortly:
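Cos 7 cells transiently transfected with human or rat IBAT cDNA, assayed one day later in Hank's buffer with 25 mM glucose, 10 mM HEPES (pH 7.4) plus compound. Uptake of 8 μM [^3H]taurocholate over 60 min at 37 °C, stopped with 1 mM taurocholate washes; lysate radioactivity by scintillation counting.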

The test system of data set [2] is Cholic acid-loaded rat model. Kind of data set: Bile acid-decreasing effect in portal vein of rats loaded with cholic acid (Test Example 2). The data set is classed as in vivo. The following applies: 0.1 mg/kg oral with cholic acid 200 mg/kg; portal vein blood after 2 hours; Tween 20 0.05%. Here is the method: Bile Acid-Decreasing Effect in Portal Vein of Rats Loaded With Cholic Acid
In this test example, the test for confirming the bile acid-decreasing effect in portal vein of cholic acid-loaded rats was carried out according to the method described in Pharmacology and Therapeutics [Jpn Pharmacol. Ther., Vol. 24 Supplement, 1996, 103 (S-577)-110 (S-584)].
That is, 7 to 9 weeks old SD (IGS) rats were starved on the day before the test and thereafter. […] After 2 hours from the administration, a sample of blood was taken from a portal vein and total serum bile acid level was measured to study the effect of the test compound (n=6). Further, as a control group, a group (n=6) loaded with cholic acid (200 mg/kg) only was prepared and the same test procedure was followed. A commercially available kit (trade name: SOTANJUSAN-TEST WAKO-(SOTANJUSAN=total bile acid), manufactured by WAKO PURE CHEMICAL […], LTD.) was used for the measurement of bile acid. Assuming the value of the control group, which is a group in which no test compound was used, as 100%, the rate of decrease (percentage (%) of decrease) of the bile acid level when a fixed amount of the test compound was used was determined.

With `CCCC[C@@]1(CC)CS(=O)(=O)c2cc(OC)c(OC)cc2[C@H](c2ccccc2)N1` (relative stereo) [Compound B, Trans-3-butyl-3-ethyl-2,3,4,5-tetrahydro-7,8-dimethoxy-5-phenyl-1,4-benzothiazepine-1,1-dioxide], in data set [1] (Table 17, 1 mg/kg oral), the ALP is 1335 ± 116 IU/L, the ALT was determined as 138 ± 54 IU/L and the AST was 261 ± 63 IU/L. In the data set with bile acid loaded model (Table 19, 0.1 mg/kg), this molecule registered an ALT of 54 ± 6 IU/L and an AST of 110 ± 4 IU/L.

As for `CCCC[C@@]1(CC)CS(=O)(=O)c2ccccc2[C@H](c2ccccc2)N1` (relative stereo) [Compound C, Trans-3-butyl-3-ethyl-2,3,4,5-tetrahydro-5-phenyl-1,4-benzothiazepine-1,1-dioxide], in data set [1] (Table 16, 10 mg/kg oral), the ALP was determined as 948 ± 208 IU/L, the ALT stood at 113 ± 44 IU/L and the AST was found to be 313 ± 82 IU/L. Further, in the data set with bile acid loaded model (Table 18, 10 mg/kg), the ALT is listed as 53 ± 6 IU/L and the AST is 100 ± 2 IU/L.

In data set [1] (Table 16, 10 mg/kg oral), `CCCCC1(CCCC)CS(=O)(=O)c2ccc(N(C)C)cc2[C@H](c2cccc([N+](C)(C)C)c2)[C@@H]1O.[I-]` (relative stereo) [Compound D, Cis-[3-(3,3-dibutyl-7-dimethylamino-4-hydroxy-1,1-dioxo-2,3,4,5-tetrahydro-1-benzothiepin-5-yl)phenyl]trimethyl-ammonium iodide] gave an ALP of 715 ± 24 IU/L, an ALT of 73 ± 17 IU/L and an AST of 275 ± 12 IU/L. Besides, in the data set with bile acid loaded model (Table 18, 10 mg/kg), the ALT was determined as 46 ± 4 IU/L and the AST is given as 100 ± 9 IU/L.

In data set [1] (Table 17, 10 mg/kg oral), `CCCCC1(CCCC)CS(=O)(=O)c2ccc(N(C)C)cc2C(c2ccc(OCc3ccc(C[N+]45CCN(CC4)CC5)cc3)cc2)N1.[Cl-]` (stereo not shown) [Comparative Example 2, 1-{4-[4-(3,3-Dibutyl-7-dimethylamino-1,1-dioxo-2,3,4,5-tetrahydro-1,4-benzothiazepin-5-yl)phenoxymethyl]benzyl}-4-aza-1-azoniabicyclo[2.2.2]octane chloride] showed an ALP of 1266 ± 160 IU/L, an ALT of 281 ± 103 IU/L and an AST of 547 ± 159 IU/L. Further, the “cytotoxicity to Caco 2 cells” value with Caco 2 cells is reported as “showed cytotoxicity to small intestine epithelial cell line at low concentrations”.

In the case of `CCC(CC)CC(=O)c1c(C(=O)OC)c(-c2ccc(OC)c(OC)c2)c2c(OC)c(OC)c(OC)cc2c1O` [Compound E, Methyl 1-(3,4-dimethoxyphenyl)-3-(3-ethylvaleryl)-4-hydroxy-6,7,8-trimethoxy-2-naphthoate], in data set [1] (Table 17, 10 mg/kg oral), the ALP is 1345 ± 145 IU/L, the ALT amounted to 180 ± 68 IU/L and the AST was 280 ± 72 IU/L. Also, in the data set with bile acid loaded model (Table 19, 10 mg/kg), the ALT came out at 46 ± 3 IU/L and the AST was 105 ± 11 IU/L.

Turning to `CCC(CC)CC(=O)c1c(C(=O)OC)c(-c2ccc(OC)c(OC)c2)c2c(OC)c(OC)c(OC)cc2c1OC1OC(C(=O)O)C(O)C(O)C1O` [Compound F, {1-O-[4-(3,4-dimethoxyphenyl)-2-(3-ethyl-pentanoyl)-5,6,7-trimethoxy-3-(methoxycarbonyl)naphthalen-1-yl]-β-D-glucopyranosido}uronic acid], in data set [1] (Table 17, 10 mg/kg oral), the ALP stood at 1423 ± 115 IU/L, the ALT stood at 214 ± 53 IU/L and the AST was determined as 320 ± 66 IU/L. In the data set with bile acid loaded model (Table 19, 10 mg/kg), this molecule gave an ALT of 58 ± 5 IU/L and an AST of 123 ± 16 IU/L.

With `CCCCC1(CCCC)CS(=O)(=O)c2ccc(N(C)C)cc2C(c2cccc(NC(=S)NCCC[N+]34CCC(CC3)CC4)c2)N1` (stereo not shown) [Example 9, 1-(3-{3-[3,3-Dibutyl-7-dimethylamino-1,1-dioxo-2,3,4,5-tetrahydro-1,4-benzothiazepin-5-yl)phenyl]thioureido}-propyl)-1-azoniabicyclo[2.2.2]octane bromide], the IC50 came out at 36 nM against rat IBAT and 76 nM at human IBAT.

`CCCCC1(CCCC)CS(=O)(=O)c2ccc(N(C)C)cc2C(c2cccc(NC(=S)CCCCCCC[N+]34CCC(CC3)CC4)c2)N1` (stereo not shown) [Example 3932]: in data set [2], the “Rate of decrease (%) of bile acid” value was 30%. Further, the IC50 at rat IBAT is 9 nM; against human IBAT it was 36 nM.
